According to patent publication US10800791B2, “Triazole ACC inhibitors and uses thereof” (Gilead Apollo, LLC, priority 2015, dated 2020):
Values after ≈ are worked out from the molar mass of the structure shown. Read-outs that look alike come from different tables or passages of the source.

Legend:
[1] = tested on: Fusarium virguliforme (Fv); assay: Growth inhibition assay of fungal pathogens, Fv; type: cell-based; conditions: 48 h
Method in brief: (§1)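 Percent inhibition derived at 48 hours from OD600 and visual scores versus 2% DMSO control, with media+DMSO blank as background. Spore inocula in 17% V8 medium were sized from 48 h growth curves; compounds tested at final 50/10/2 or 2/0.4/0.08 ppm.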

Rhizoctonia solani (Rs) = assay: Growth inhibition assay of fungal pathogens, Rs; type: cell-based; conditions: 48 h
human (hACC2) = human (hACC2) (Homo sapiens, UniProt O00763); assay: In vitro ACC inhibition assay (ADP-Glo), hACC2; type: biochemical; conditions: 5 nM ACC2, 20 μM ATP, 20 μM acetyl-CoA
Chain of human (hACC2) (O00763 whole entry): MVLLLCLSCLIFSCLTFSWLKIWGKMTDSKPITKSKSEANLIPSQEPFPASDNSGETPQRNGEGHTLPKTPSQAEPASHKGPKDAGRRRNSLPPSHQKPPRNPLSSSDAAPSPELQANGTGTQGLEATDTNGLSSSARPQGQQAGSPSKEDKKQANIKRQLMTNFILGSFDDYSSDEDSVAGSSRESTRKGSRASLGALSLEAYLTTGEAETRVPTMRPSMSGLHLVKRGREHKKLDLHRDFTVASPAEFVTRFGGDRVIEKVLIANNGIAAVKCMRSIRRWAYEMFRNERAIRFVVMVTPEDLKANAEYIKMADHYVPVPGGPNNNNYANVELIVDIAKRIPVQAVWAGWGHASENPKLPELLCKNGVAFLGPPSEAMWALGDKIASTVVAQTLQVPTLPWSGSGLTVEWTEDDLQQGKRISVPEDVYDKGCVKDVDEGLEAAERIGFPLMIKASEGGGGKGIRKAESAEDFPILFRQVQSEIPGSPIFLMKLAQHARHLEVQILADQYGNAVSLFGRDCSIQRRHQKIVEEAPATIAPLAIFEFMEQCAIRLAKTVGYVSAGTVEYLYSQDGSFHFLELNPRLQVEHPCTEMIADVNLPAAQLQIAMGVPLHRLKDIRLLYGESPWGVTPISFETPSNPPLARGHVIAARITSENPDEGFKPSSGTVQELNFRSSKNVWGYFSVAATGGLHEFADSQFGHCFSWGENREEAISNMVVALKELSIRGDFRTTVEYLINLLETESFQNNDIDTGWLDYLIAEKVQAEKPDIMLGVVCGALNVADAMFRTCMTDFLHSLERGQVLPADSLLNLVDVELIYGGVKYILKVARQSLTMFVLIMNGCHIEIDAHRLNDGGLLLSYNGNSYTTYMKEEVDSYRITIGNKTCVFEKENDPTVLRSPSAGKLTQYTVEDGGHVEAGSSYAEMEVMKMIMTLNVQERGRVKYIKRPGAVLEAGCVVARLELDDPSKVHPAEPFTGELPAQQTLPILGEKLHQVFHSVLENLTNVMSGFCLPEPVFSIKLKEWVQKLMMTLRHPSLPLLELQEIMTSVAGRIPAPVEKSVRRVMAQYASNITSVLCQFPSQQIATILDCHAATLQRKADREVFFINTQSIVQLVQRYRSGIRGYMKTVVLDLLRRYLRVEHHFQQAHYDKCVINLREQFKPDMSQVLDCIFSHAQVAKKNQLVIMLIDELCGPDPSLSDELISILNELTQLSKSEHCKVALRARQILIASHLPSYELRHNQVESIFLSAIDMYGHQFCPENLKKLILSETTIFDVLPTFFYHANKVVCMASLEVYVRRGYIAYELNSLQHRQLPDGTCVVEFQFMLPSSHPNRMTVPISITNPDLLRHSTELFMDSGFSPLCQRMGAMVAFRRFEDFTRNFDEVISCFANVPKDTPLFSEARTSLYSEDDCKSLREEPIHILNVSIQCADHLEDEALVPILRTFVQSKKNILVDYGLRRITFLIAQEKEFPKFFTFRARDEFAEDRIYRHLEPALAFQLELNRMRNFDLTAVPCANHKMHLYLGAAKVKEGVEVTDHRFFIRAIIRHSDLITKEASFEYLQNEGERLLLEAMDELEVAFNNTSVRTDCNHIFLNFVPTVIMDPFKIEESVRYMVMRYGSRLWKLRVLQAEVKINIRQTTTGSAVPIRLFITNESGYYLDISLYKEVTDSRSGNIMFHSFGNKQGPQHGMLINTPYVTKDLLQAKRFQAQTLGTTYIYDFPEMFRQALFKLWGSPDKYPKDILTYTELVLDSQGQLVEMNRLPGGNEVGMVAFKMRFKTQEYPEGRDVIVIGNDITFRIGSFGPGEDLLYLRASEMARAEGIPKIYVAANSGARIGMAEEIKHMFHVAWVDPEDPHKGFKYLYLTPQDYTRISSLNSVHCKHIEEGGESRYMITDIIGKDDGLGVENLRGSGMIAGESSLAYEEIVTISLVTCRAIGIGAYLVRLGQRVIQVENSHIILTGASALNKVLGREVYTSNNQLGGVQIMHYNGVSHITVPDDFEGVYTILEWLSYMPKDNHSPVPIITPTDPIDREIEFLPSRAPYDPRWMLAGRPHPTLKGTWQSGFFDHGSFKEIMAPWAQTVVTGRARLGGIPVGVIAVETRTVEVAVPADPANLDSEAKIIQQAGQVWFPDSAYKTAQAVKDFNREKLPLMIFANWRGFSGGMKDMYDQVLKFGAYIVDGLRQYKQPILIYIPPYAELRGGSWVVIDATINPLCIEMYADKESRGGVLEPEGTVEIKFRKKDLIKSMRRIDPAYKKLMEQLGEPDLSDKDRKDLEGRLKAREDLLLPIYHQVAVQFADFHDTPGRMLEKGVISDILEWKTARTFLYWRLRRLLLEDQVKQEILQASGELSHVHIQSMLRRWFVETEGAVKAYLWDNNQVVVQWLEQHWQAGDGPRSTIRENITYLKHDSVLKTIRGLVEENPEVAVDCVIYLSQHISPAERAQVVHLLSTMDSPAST
Protocol: The detailed procedure is as follows. […] 10 μL ADP glo reagent was added. […] 20 μL kinase detection reagent was added.

Septoria tritici (St) = assay: Growth inhibition assay of fungal pathogens, St; type: cell-based; conditions: Zymoseptoria tritici, 48 h
Method in brief: as §1

C. albicans = assay: Antifungal Activity Assay (broth microtiter MIC), C. albicans; type: cell-based, Candida albicans; conditions: Candida albicans, ATCC90028, 48 h
Method in brief: (§2)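 MIC read by eye at 48 h, comparing challenged wells with the growth control. Yeasts grown overnight on Sabouraud dextrose agar at 35° C, suspended in RPMI 1640+MOPS and added at 2.5×10^3 CFU/mL final, following CLSI M27-A3.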

fungal (fACC2) = fungal (fACC2) (UniProt Q00955); conditions: read-out: fACC2 (in vitro ACC2 Inhibition Assay, IC50), ADP-Glo, 5 nM ACC2, 20 μM ATP, 20 μM acetyl-CoA
Chain of fungal (fACC2) (Q00955 whole entry): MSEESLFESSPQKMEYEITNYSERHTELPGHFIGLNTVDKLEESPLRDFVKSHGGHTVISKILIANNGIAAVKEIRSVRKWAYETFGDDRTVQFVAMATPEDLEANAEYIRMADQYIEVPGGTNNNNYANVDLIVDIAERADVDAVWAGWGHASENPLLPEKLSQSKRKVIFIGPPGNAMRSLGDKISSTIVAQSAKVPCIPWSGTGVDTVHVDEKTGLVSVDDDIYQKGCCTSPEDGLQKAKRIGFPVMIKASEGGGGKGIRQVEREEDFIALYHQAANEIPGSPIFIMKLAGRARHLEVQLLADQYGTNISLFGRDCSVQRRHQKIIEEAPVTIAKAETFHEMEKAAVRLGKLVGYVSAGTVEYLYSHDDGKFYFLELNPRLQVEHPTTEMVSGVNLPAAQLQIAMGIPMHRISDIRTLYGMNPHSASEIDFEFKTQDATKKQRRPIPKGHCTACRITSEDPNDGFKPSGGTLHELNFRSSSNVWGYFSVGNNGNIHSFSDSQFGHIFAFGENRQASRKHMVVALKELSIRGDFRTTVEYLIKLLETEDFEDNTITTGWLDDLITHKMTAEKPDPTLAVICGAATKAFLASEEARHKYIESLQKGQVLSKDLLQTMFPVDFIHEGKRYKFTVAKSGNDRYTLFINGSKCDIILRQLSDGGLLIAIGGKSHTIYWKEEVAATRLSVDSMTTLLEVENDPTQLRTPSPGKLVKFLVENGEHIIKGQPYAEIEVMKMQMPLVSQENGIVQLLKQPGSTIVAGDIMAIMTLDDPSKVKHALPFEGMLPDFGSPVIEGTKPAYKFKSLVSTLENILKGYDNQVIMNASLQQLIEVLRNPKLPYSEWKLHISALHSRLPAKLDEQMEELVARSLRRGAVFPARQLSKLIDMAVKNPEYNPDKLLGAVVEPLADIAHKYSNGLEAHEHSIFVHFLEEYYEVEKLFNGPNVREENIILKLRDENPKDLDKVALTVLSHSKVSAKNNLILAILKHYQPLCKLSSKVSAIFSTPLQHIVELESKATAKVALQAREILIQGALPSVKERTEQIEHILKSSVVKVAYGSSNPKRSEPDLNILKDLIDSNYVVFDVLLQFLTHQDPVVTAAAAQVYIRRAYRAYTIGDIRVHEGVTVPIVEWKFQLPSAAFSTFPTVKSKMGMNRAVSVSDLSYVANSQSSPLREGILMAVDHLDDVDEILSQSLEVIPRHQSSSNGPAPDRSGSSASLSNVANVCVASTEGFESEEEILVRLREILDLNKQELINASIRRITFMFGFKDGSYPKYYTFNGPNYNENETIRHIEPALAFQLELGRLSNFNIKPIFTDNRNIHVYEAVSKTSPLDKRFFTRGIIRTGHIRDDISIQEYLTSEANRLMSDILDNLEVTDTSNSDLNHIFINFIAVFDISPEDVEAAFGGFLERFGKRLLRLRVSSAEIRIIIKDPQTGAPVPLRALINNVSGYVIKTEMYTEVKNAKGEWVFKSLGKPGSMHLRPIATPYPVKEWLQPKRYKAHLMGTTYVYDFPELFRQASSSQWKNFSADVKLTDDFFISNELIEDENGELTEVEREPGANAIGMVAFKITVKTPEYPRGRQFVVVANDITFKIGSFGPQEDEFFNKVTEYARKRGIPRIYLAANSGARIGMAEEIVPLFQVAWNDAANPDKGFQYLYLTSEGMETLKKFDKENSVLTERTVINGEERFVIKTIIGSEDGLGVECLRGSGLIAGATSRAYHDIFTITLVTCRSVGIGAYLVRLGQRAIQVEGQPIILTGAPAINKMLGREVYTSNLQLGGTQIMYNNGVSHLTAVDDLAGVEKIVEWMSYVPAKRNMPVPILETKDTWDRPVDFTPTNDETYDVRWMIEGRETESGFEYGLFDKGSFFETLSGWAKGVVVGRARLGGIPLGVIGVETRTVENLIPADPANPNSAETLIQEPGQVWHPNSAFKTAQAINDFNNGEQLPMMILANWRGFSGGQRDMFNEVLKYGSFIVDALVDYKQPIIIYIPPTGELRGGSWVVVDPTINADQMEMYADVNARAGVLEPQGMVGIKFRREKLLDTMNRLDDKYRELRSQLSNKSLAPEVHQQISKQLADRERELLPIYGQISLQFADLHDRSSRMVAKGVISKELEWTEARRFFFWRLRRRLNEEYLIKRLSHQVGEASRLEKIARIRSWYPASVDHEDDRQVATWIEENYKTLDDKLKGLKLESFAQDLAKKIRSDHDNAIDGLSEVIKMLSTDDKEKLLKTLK

C. parapsilosis = assay: Antifungal Activity Assay (broth microtiter MIC), C. parapsilosis; type: cell-based, Candida parapsilosis; conditions: Lodderomyces parapsilosis, ATCC22019, 48 h
Method in brief: as §2

Botrtyis cinerea (Bc) = assay: Growth inhibition assay of fungal pathogens, Bc; type: cell-based; conditions: 48 h
Method in brief: as §1

[2] = tested on: Fusarium moniliforme (Fm); assay: Growth inhibition assay of fungal pathogens, Fm; type: cell-based; conditions: for IC90: Fusarium verticillioides, 48 h, read-out: Concentration at 90% Inhibition Fm
Method in brief: as §1

Diplodia maydis (Dm) = assay: Growth inhibition assay of fungal pathogens, Dm; type: cell-based; conditions: Stenocarpella maydis, 48 h
Method in brief: as §1

[3] = read-out: Concentration at 90% Inhibition Fv, Fusarium virguliforme, growth inhibition at 48 hours vs 2% DMSO control
[4] = read-out: Concentration at 90% Inhibition Fv, Fusarium virguliforme, growth inhibition vs 2% DMSO control at 48 hours
[5] = read-out: Concentration at 90% Inhibition Rs, Rhizoctonia solani, mycelial plugs, growth inhibition at 48 hours vs 2% DMSO control
[6] = read-out: Concentration at 90% Inhibition Rs, Rhizoctonia solani, mycelial plugs, growth inhibition vs 2% DMSO control at 48 hours
[7] = read-out: Concentration at 90% Inhibition St, Septoria tritici, growth inhibition at 48 hours vs 2% DMSO control
[8] = read-out: Concentration at 90% Inhibition St, Septoria tritici, growth inhibition vs 2% DMSO control at 48 hours
[9] = read-out: MIC, C. albicans ATCC 90028, Table 3a, 3 replicates, MIC recorded at 48 h
[10] = read-out: MIC, C. albicans ATCC 90028, Table 3b (additional results), 3 replicates, MIC recorded at 48 h
[11] = read-out: MIC, C. parapsilosis ATCC 22019, Table 3a, 3 replicates, MIC recorded at 48 h
[12] = read-out: MIC, C. parapsilosis ATCC 22019, Table 3b (additional results), 3 replicates, MIC recorded at 48 h
[13] = read-out: Concentration at 90% Inhibition Bc, Botrtyis cinerea, growth inhibition at 48 hours vs 2% DMSO control
[14] = read-out: Concentration at 90% Inhibition Bc, Botrtyis cinerea, growth inhibition vs 2% DMSO control at 48 hours
[15] = Fusarium moniliforme, growth inhibition at 48 hours vs 2% DMSO control
[16] = read-out: Concentration at 90% Inhibition Dm, Diplodia maydis, growth inhibition at 48 hours vs 2% DMSO control
[17] = read-out: Concentration at 90% Inhibition Dm, Diplodia maydis, growth inhibition vs 2% DMSO control at 48 hours
[18] = growth inhibition at 48 hours vs 2% DMSO control, read-out: Concentration at 90% Inhibition Fv
[19] = growth inhibition vs 2% DMSO control at 48 hours, read-out: Concentration at 90% Inhibition Fv
[20] = mycelial plugs, growth inhibition at 48 hours vs 2% DMSO control, read-out: Concentration at 90% Inhibition Rs
[21] = mycelial plugs, growth inhibition vs 2% DMSO control at 48 hours, read-out: Concentration at 90% Inhibition Rs
[22] = Septoria tritici, growth inhibition at 48 hours vs 2% DMSO control, read-out: Concentration at 90% Inhibition St
[23] = Septoria tritici, growth inhibition vs 2% DMSO control at 48 hours, read-out: Concentration at 90% Inhibition St
[24] = Table 3a, ATCC 90028, 3 replicates, MIC recorded at 48 h, read-out: MIC, C. albicans ATCC 90028
[25] = Table 3b (additional results), ATCC 90028, 3 replicates, MIC recorded at 48 h, read-out: MIC, C. albicans ATCC 90028
[26] = Table 3a, ATCC 22019, 3 replicates, MIC recorded at 48 h, read-out: MIC, C. parapsilosis ATCC 22019
[27] = Table 3b (additional results), ATCC 22019, 3 replicates, MIC recorded at 48 h, read-out: MIC, C. parapsilosis ATCC 22019
[28] = Botrtyis cinerea, growth inhibition at 48 hours vs 2% DMSO control, read-out: Concentration at 90% Inhibition Bc
[29] = Botrtyis cinerea, growth inhibition vs 2% DMSO control at 48 hours, read-out: Concentration at 90% Inhibition Bc
[30] = Fusarium moniliforme, growth inhibition vs 2% DMSO control at 48 hours
[31] = Diplodia maydis, growth inhibition at 48 hours vs 2% DMSO control, read-out: Concentration at 90% Inhibition Dm
[32] = Diplodia maydis, growth inhibition vs 2% DMSO control at 48 hours, read-out: Concentration at 90% Inhibition Dm

Compound	IC90 [1, 3] [µg/mL]	IC90 [1, 4] [µg/mL]	IC90 (Rhizoctonia solani (Rs); [5]) [µg/mL]	IC90 (Rhizoctonia solani (Rs); [6]) [µg/mL]	IC50 (human (hACC2); Table 2a) [nM]	IC50 (human (hACC2); Table 2b, additional results) [nM]	IC90 (Septoria tritici (St); [7]) [µg/mL]	IC90 (Septoria tritici (St); [8]) [µg/mL]	MIC (C. albicans; [9]) [µg/mL]	MIC (C. albicans; [10]) [µg/mL]	IC50 (fungal (fACC2); Table 2a) [nM]	IC50 (fungal (fACC2); Table 2b, additional results) [nM]	MIC (C. parapsilosis; [11]) [µg/mL]	MIC (C. parapsilosis; [12]) [µg/mL]	IC90 (Botrtyis cinerea (Bc); [13]) [µg/mL]	IC90 (Botrtyis cinerea (Bc); [14]) [µg/mL]	Concentration at 90% Inhibition Fm [2, 15]	IC90 [2] [µg/mL]	IC90 (Diplodia maydis (Dm); [16]) [µg/mL]	IC90 (Diplodia maydis (Dm); [17]) [µg/mL]	also measured
C=CCNC(=O)C(C)(C)n1c(=O)c2c(C)c(-n3nccn3)sc2n(C[C@H](OC2CCOCC2)c2cc(F)ccc2OC)c1=O [Compound I-70, (R)—N-allyl-2-(1-(2-(5-fluoro-2-methoxyphenyl)-2-((tetrahydro-2H-pyran-4-yl)oxy)ethyl)-5-methyl-2,4-dioxo-6-(2H-1,2,3-triazol-2-yl)-1,4-dihydrothieno[2,3-d]pyrimidin-3(2H)-yl)-2-methylpropanamide]	0.4 (≈ 0.638 µM)	0.4 (≈ 0.638 µM)	0.4 (≈ 0.638 µM)	0.4 (≈ 0.638 µM)	1 to 5	1 to 5	> 50	> 50	0.25 to 1 (≈ 0.399 to 1.6 µM)	0.25 to 1 (≈ 0.399 to 1.6 µM)	1 to 5	1 to 5	0.25 to 1 (≈ 0.399 to 1.6 µM)	1.01 to 2 (≈ 1.61 to 3.19 µM)	2 (≈ 3.19 µM)	2 (≈ 3.19 µM)	AA (compound concentration of 0.08 ppm at 90% inhibition of fungal pathogens)	0.08 (≈ 0.128 µM)	2 (≈ 3.19 µM)	2 (≈ 3.19 µM)	–
C=CCN(C)C(=O)C(C)(C)n1c(=O)c2c(C)c(-n3nccn3)sc2n(C[C@H](OC2CCOCC2)c2cc(F)ccc2OC)c1=O [Compound I-71, (R)—N-allyl-2-(1-(2-(5-fluoro-2-methoxyphenyl)-2-((tetrahydro-2H-pyran-4-yl)oxy)ethyl)-5-methyl-2,4-dioxo-6-(2H-1,2,3-triazol-2-yl)-1,4-dihydrothieno[2,3-d]pyrimidin-3(2H)-yl)-N,2-dimethylpropanamide]	–	–	–	–	1 to 5	1 to 5	–	–	–	–	1 to 5	1 to 5	–	–	–	–	–	–	–	–	IC90 [1, 18]: 2 µg/mL (≈ 3.12 µM); IC90 [1, 19]: 2 µg/mL (≈ 3.12 µM); IC90 (Rhizoctonia solani (Rs); [20]): 0.08 µg/mL (≈ 0.125 µM); IC90 (Rhizoctonia solani (Rs); [21]): 0.08 µg/mL (≈ 0.125 µM); IC90 (Septoria tritici (St); [22]): > 50 µg/mL; IC90 (Septoria tritici (St); [23]): > 50 µg/mL; MIC (C. albicans; [24]): 0.25 to 1 µg/mL (≈ 0.39 to 1.56 µM); MIC (C. albicans; [25]): 0.25 to 1 µg/mL (≈ 0.39 to 1.56 µM); MIC (C. parapsilosis; [26]): 0.25 to 1 µg/mL (≈ 0.39 to 1.56 µM); MIC (C. parapsilosis; [27]): 1.01 to 2 µg/mL (≈ 1.58 to 3.12 µM); IC90 (Botrtyis cinerea (Bc); [28]): 0.4 µg/mL (≈ 0.624 µM); IC90 (Botrtyis cinerea (Bc); [29]): 0.4 µg/mL (≈ 0.624 µM); IC90 [2, 15]: 0.08 µg/mL (≈ 0.125 µM); IC90 [2, 30]: 0.08 µg/mL (≈ 0.125 µM); IC90 (Diplodia maydis (Dm); [31]): 0.4 µg/mL (≈ 0.624 µM); IC90 (Diplodia maydis (Dm); [32]): 0.4 µg/mL (≈ 0.624 µM)
C=CCO[C@@H](Cn1c(=O)n(C(C)(C)C(=O)NC(C)C)c(=O)c2c(C)c(-n3nccn3)sc21)c1cc(F)ccc1OC [Compound I-72, (R)-2-(1-(2-(allyloxy)-2-(5-fluoro-2-methoxyphenyl)ethyl)-5-methyl-2,4-dioxo-6-(2H-1,2,3-triazol-2-yl)-1,4-dihydrothieno[2,3-d]pyrimidin-3(2H)-yl)-N-isopropyl-2-methylpropanamide]	0.4 (≈ 0.684 µM)	0.4 (≈ 0.684 µM)	0.4 (≈ 0.684 µM)	0.4 (≈ 0.684 µM)	1 to 5	1 to 5	> 50	> 50	2.1 to 4 (≈ 3.59 to 6.84 µM)	1.01 to 2 (≈ 1.73 to 3.42 µM)	1 to 5	1 to 5	1.1 to 2 (≈ 1.88 to 3.42 µM)	1.01 to 2 (≈ 1.73 to 3.42 µM)	2 (≈ 3.42 µM)	2 (≈ 3.42 µM)	AA (compound concentration of 0.08 ppm at 90% inhibition of fungal pathogens)	0.08 (≈ 0.137 µM)	2 (≈ 3.42 µM)	2 (≈ 3.42 µM)	–
COc1ccc(F)cc1[C@H](Cn1c(=O)n(C(C)(C)C(=O)NC2CC2)c(=O)c2c(C)c(-n3nccn3)sc21)OC(C)C [Compound I-73, (R)—N-cyclopropyl-2-(1-(2-(5-fluoro-2-methoxyphenyl)-2-isopropoxyethyl)-5-methyl-2,4-dioxo-6-(2H-1,2,3-triazol-2-yl)-1,4-dihydrothieno[2,3-d]pyrimidin-3(2H)-yl)-2-methylpropanamide]	–	–	–	–	5 to 10	5 to 10	–	–	–	–	1 to 5	1 to 5	–	–	–	–	–	–	–	–	IC90 [1, 18]: 0.4 µg/mL (≈ 0.684 µM); IC90 [1, 19]: 0.4 µg/mL (≈ 0.684 µM); IC90 (Rhizoctonia solani (Rs); [20]): 0.4 µg/mL (≈ 0.684 µM); IC90 (Rhizoctonia solani (Rs); [21]): 0.4 µg/mL (≈ 0.684 µM); IC90 (Septoria tritici (St); [22]): > 50 µg/mL; IC90 (Septoria tritici (St); [23]): > 50 µg/mL; MIC (C. albicans; [24]): 0.25 to 1 µg/mL (≈ 0.428 to 1.71 µM); MIC (C. albicans; [25]): 0.25 to 1 µg/mL (≈ 0.428 to 1.71 µM); MIC (C. parapsilosis; [26]): 0.25 to 1 µg/mL (≈ 0.428 to 1.71 µM); MIC (C. parapsilosis; [27]): 1.01 to 2 µg/mL (≈ 1.73 to 3.42 µM); IC90 (Botrtyis cinerea (Bc); [28]): 2 µg/mL (≈ 3.42 µM); IC90 (Botrtyis cinerea (Bc); [29]): 2 µg/mL (≈ 3.42 µM); IC90 [2, 15]: 0.08 µg/mL (≈ 0.137 µM); IC90 [2, 30]: 0.08 µg/mL (≈ 0.137 µM); IC90 (Diplodia maydis (Dm); [31]): 2 µg/mL (≈ 3.42 µM); IC90 (Diplodia maydis (Dm); [32]): 2 µg/mL (≈ 3.42 µM)
